From the CheMixHub viscosity set
Where “and” joins values, the source holds several entries; their conditions need not be identical. Identical values can stand only once.

Test: xn = mol fraction of the nth substance listed

C[N+](C)(C)CCO.[Cl-] + OCC(O)CO
Conditions	viscosity
293.15 K, 100 kPa, x1 = 0.3	519 mPa·s
293.15 K, 100 kPa, x1 = 0.333	561.4 mPa·s
293.15 K, 101.3 kPa, x2 = 0.7	516.1 mPa·s
293.42 K, 101.33 kPa, x2 = 0.8	167.1 mPa·s
293.43 K, 101.33 kPa, x2 = 0.7	267.9 mPa·s
294.19 K, 101.33 kPa, x2 = 0.7	254.1 mPa·s
294.4 K, 101.33 kPa, x2 = 0.8	156.8 mPa·s
295.2 K, 101.33 kPa, x2 = 0.8	148.2 mPa·s
295.27 K, 101.33 kPa, x2 = 0.7	236.6 mPa·s
296.05 K, 101.33 kPa, x2 = 0.8	138.9 mPa·s
296.09 K, 101.33 kPa, x2 = 0.7	222.7 mPa·s
296.85 K, 101.33 kPa, x2 = 0.7	209.9 mPa·s
296.95 K, 101.33 kPa, x2 = 0.8	130 mPa·s
297.09 K, 101 kPa, x1 = 0.333	348.4 mPa·s
297.68 K, 101.33 kPa, x2 = 0.8	123.2 mPa·s
297.78 K, 101.33 kPa, x2 = 0.7	195.3 mPa·s
298.15 K, 100 kPa, x1 = 0.3	368 mPa·s
298.15 K, 100 kPa, x1 = 0.33	348 mPa·s
298.15 K, 100 kPa, x1 = 0.333	259 mPa·s and 386.3 mPa·s
298.15 K, 101 kPa, x1 = 0.167	304 mPa·s
298.15 K, 101 kPa, x1 = 0.2	353.5 mPa·s and 244 mPa·s
298.15 K, 101 kPa, x1 = 0.25	338.7 mPa·s and 261 mPa·s
298.15 K, 101 kPa, x1 = 0.33	318.1 mPa·s
298.15 K, 101 kPa, x1 = 0.333	200 mPa·s and 283.2 mPa·s
298.15 K, 101.33 kPa, x2 = 0.7	301 mPa·s
298.73 K, 101.33 kPa, x2 = 0.7	184.5 mPa·s
298.74 K, 101.33 kPa, x2 = 0.8	115.2 mPa·s
299.46 K, 101.33 kPa, x2 = 0.7	174.9 mPa·s
299.66 K, 101.33 kPa, x2 = 0.8	108.3 mPa·s
300.32 K, 101.33 kPa, x2 = 0.7	163 mPa·s
300.43 K, 101.33 kPa, x2 = 0.8	101.9 mPa·s
301.05 K, 101.33 kPa, x2 = 0.8	96.5 mPa·s
301.22 K, 101.33 kPa, x2 = 0.7	152.2 mPa·s
301.89 K, 101 kPa, x1 = 0.333	263.5 mPa·s
302.07 K, 101.33 kPa, x2 = 0.7	144.8 mPa·s
302.09 K, 101.33 kPa, x2 = 0.8	90.62 mPa·s
303 K, 101 kPa, x1 = 0.3333	428.4 mPa·s
303.03 K, 101.33 kPa, x2 = 0.7	137 mPa·s
303.04 K, 101.33 kPa, x2 = 0.8	85.38 mPa·s
303.15 K, 100 kPa, x1 = 0.33	255.6 mPa·s
303.15 K, 100 kPa, x1 = 0.333	290.9 mPa·s
303.15 K, 101 kPa, x1 = 0.2	259.6 mPa·s
303.15 K, 101 kPa, x1 = 0.25	250.4 mPa·s
303.15 K, 101 kPa, x1 = 0.33	239 mPa·s
303.97 K, 101.33 kPa, x2 = 0.7	128 mPa·s
303.97 K, 101.33 kPa, x2 = 0.8	81.55 mPa·s
304.77 K, 101.33 kPa, x2 = 0.7	121.8 mPa·s
304.87 K, 101.33 kPa, x2 = 0.8	76.53 mPa·s
305.64 K, 101.33 kPa, x2 = 0.7	114.5 mPa·s
305.7 K, 101.33 kPa, x2 = 0.8	72.8 mPa·s
306.52 K, 101.33 kPa, x2 = 0.7	109 mPa·s
306.58 K, 101.33 kPa, x2 = 0.8	69.11 mPa·s
307.07 K, 101 kPa, x1 = 0.333	187 mPa·s
307.4 K, 101.33 kPa, x2 = 0.7	103.9 mPa·s
307.47 K, 101.33 kPa, x2 = 0.8	65.09 mPa·s
308 K, 101 kPa, x1 = 0.3333	312 mPa·s
308.15 K, 100 kPa, x1 = 0.3	198 mPa·s
308.15 K, 100 kPa, x1 = 0.33	190.3 mPa·s
308.15 K, 100 kPa, x1 = 0.333	216.8 mPa·s
308.15 K, 101 kPa, x1 = 0.2	192.5 mPa·s
308.15 K, 101 kPa, x1 = 0.25	187 mPa·s
308.15 K, 101 kPa, x1 = 0.33	181.2 mPa·s
308.15 K, 101.3 kPa, x2 = 0.7	194.5 mPa·s
308.15 K, 101.33 kPa, x2 = 0.7	96.86 mPa·s
308.34 K, 101.33 kPa, x2 = 0.8	61.7 mPa·s
309.15 K, 101.33 kPa, x2 = 0.8	58.96 mPa·s
309.17 K, 101.33 kPa, x2 = 0.7	92 mPa·s
309.94 K, 101.33 kPa, x2 = 0.7	88.35 mPa·s
310 K, 101.33 kPa, x2 = 0.8	56.2 mPa·s
310.82 K, 101.33 kPa, x2 = 0.8	53.22 mPa·s
310.85 K, 101.33 kPa, x2 = 0.7	82.38 mPa·s
311.67 K, 101.33 kPa, x2 = 0.8	50.6 mPa·s
311.74 K, 101.33 kPa, x2 = 0.7	79.15 mPa·s
312.13 K, 101 kPa, x1 = 0.333	144.5 mPa·s
312.62 K, 101.33 kPa, x2 = 0.7	74.77 mPa·s
312.66 K, 101.33 kPa, x2 = 0.8	47.68 mPa·s
313 K, 101 kPa, x1 = 0.3333	222.4 mPa·s
313.15 K, 100 kPa, x1 = 0.3	148 mPa·s
313.15 K, 100 kPa, x1 = 0.33	145.1 mPa·s
313.15 K, 100 kPa, x1 = 0.333	165.7 mPa·s and 161.3 mPa·s
313.15 K, 101 kPa, x1 = 0.167	119 mPa·s
313.15 K, 101 kPa, x1 = 0.2	144.2 mPa·s and 90 mPa·s
313.15 K, 101 kPa, x1 = 0.25	140.9 mPa·s and 93 mPa·s
313.15 K, 101 kPa, x1 = 0.33	138.6 mPa·s
313.15 K, 101 kPa, x1 = 0.333	85 mPa·s
313.4 K, 101.33 kPa, x2 = 0.7	70.27 mPa·s
313.68 K, 101.33 kPa, x2 = 0.8	45.67 mPa·s
314.3 K, 101.33 kPa, x2 = 0.7	67.45 mPa·s
314.49 K, 101.33 kPa, x2 = 0.8	43.42 mPa·s
315.23 K, 101.33 kPa, x2 = 0.8	41.47 mPa·s
315.26 K, 101.33 kPa, x2 = 0.7	64.39 mPa·s
315.79 K, 101.33 kPa, x2 = 0.8	40.01 mPa·s
316.19 K, 101.33 kPa, x2 = 0.7	60.28 mPa·s
316.96 K, 101.33 kPa, x2 = 0.8	38.19 mPa·s
317.25 K, 101.33 kPa, x2 = 0.7	57.92 mPa·s
317.43 K, 101 kPa, x1 = 0.333	110.5 mPa·s
317.78 K, 101.33 kPa, x2 = 0.8	35.41 mPa·s
317.92 K, 101.33 kPa, x2 = 0.7	55.4 mPa·s
318 K, 101 kPa, x1 = 0.3333	159.6 mPa·s
318.15 K, 100 kPa, x1 = 0.3	116 mPa·s
318.15 K, 100 kPa, x1 = 0.333	125.2 mPa·s
318.15 K, 101 kPa, x1 = 0.2	109 mPa·s
318.15 K, 101 kPa, x1 = 0.25	107.2 mPa·s
318.15 K, 101 kPa, x1 = 0.33	106.9 mPa·s
318.15 K, 101 kPa, x1 = 0.333	91 mPa·s
318.15 K, 101.3 kPa, x2 = 0.7	114.4 mPa·s
318.42 K, 101.33 kPa, x2 = 0.8	35.11 mPa·s
318.59 K, 101.33 kPa, x2 = 0.7	53.65 mPa·s
319.37 K, 101.33 kPa, x2 = 0.8	33.09 mPa·s
319.53 K, 101.33 kPa, x2 = 0.7	51.45 mPa·s
320.2 K, 101.33 kPa, x2 = 0.8	31.05 mPa·s
320.45 K, 101.33 kPa, x2 = 0.7	48.65 mPa·s
321.14 K, 101.33 kPa, x2 = 0.8	29.69 mPa·s
321.38 K, 101.33 kPa, x2 = 0.7	46.23 mPa·s
322.2 K, 101.33 kPa, x2 = 0.7	44.48 mPa·s
322.23 K, 101 kPa, x1 = 0.333	93.48 mPa·s
323 K, 101 kPa, x1 = 0.3333	123.5 mPa·s
323.02 K, 101.33 kPa, x2 = 0.7	42.72 mPa·s
323.15 K, 100 kPa, x1 = 0.3	89.7 mPa·s
323.15 K, 100 kPa, x1 = 0.33	88.7 mPa·s
323.15 K, 100 kPa, x1 = 0.333	98.89 mPa·s
323.15 K, 101 kPa, x1 = 0.2	83.04 mPa·s
323.15 K, 101 kPa, x1 = 0.25	82.18 mPa·s
323.15 K, 101 kPa, x1 = 0.33	83.12 mPa·s
323.15 K, 101.3 kPa, x2 = 0.7	88.65 mPa·s
